For 8 compounds, GI50 and TGI results are on record in PubChem BioAssay (NCI).

Test systems include OVCAR-5 ovarian; SF-295 CNS; UACC-257 melanoma; EKVX NSCLC; IGROV1 ovarian; UACC-62 melanoma; MOLT-4 leukemia; HOP-62 NSCLC; OVCAR-3 ovarian; RXF 393 renal.
Experiment in all cases: NCI-60 cell line screen, 48 h

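Values below derive from 48-hour exposures of cells grown in 96-well plates, with endpoints linearly interpolated between the two concentrations bracketing the appropriate inhibition level. GI50 marks 50% less growth. The concentration for full growth arrest is given as TGI.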

As to `Cc1cc(Cl)ccc1NS(=O)(=O)c1ccc(-c2cnc(C3CC3)o2)cc1`, the GI50 in the test with OVCAR-5 ovarian was 0.572 µM; with SF-295 CNS, 0.0799 µM; in the test on UACC-257 melanoma, 3.85 µM; with EKVX NSCLC, 0.411 µM; in the test on IGROV1 ovarian, 0.365 µM; in the test on UACC-62 melanoma, 0.169 µM. The GI50 in the test with MOLT-4 leukemia is 0.405 µM; with HOP-62 NSCLC, 0.556 µM; in the test with OVCAR-3 ovarian it was 0.186 µM; in the test with RXF 393 renal, 0.268 µM. Moreover, the TGI in the test on OVCAR-5 ovarian is 17.2 µM; with SF-295 CNS, 2.02 µM; in the test on UACC-257 melanoma, 25.8 µM; in the test on EKVX NSCLC, 28.5 µM; in the test on IGROV1 ovarian, 15.5 µM; in the test with UACC-62 melanoma, 17.1 µM. For the same compound, the TGI with MOLT-4 leukemia was over 44.2 µM; in the test on HOP-62 NSCLC, 21.5 µM; in the test on OVCAR-3 ovarian it was 5.41 µM; with RXF 393 renal it was 17.7 µM.
Take `CC(C)C(=O)Oc1cc2c(=O)oc3c(OC(=O)C(C)C)c(OC(=O)C(C)C)cc4c(=O)oc(c1OC(=O)C(C)C)c2c34`: the TGI in the test with OVCAR-5 ovarian, in the test on SF-295 CNS, with UACC-257 melanoma, with EKVX NSCLC, in the test with IGROV1 ovarian and in the test on UACC-62 melanoma was over 100 µM throughout. Besides, the TGI in the test on MOLT-4 leukemia, with HOP-62 NSCLC, in the test with OVCAR-3 ovarian and in the test with RXF 393 renal was over 100 µM each time.
As to `CC(=O)Oc1ccc2c(c1)CC[C@@H]1C2CC[C@]2(C)C(=O)NC(=O)CC12` (stereo not given in full), the TGI in the test on OVCAR-5 ovarian, in the test on SF-295 CNS, with UACC-257 melanoma, with EKVX NSCLC, in the test with IGROV1 ovarian and in the test on UACC-62 melanoma was over 100 µM each time. For the same compound, the TGI in the test with MOLT-4 leukemia, with HOP-62 NSCLC, in the test on OVCAR-3 ovarian and in the test with RXF 393 renal was over 100 µM throughout.
Turning to `COc1cc(/C=C(\C#N)C(N)=C(C#N)C#N)cc(O)c1O`, the TGI with OVCAR-5 ovarian, in the test with SF-295 CNS, in the test with UACC-257 melanoma, with EKVX NSCLC, in the test on IGROV1 ovarian and in the test on UACC-62 melanoma was over 100 µM each time. Further, the TGI with MOLT-4 leukemia, in the test with HOP-62 NSCLC, with OVCAR-3 ovarian and with RXF 393 renal was over 100 µM each time.
Regarding `Cc1cc(Cl)ccc1Nc1nc(C(F)(F)F)ccc1C(=O)N1CCN(c2cccc(Cl)c2)CC1`, the GI50 in the test on OVCAR-5 ovarian is over 100 µM; in the test on SF-295 CNS, 88.9 µM; with UACC-257 melanoma it was over 100 µM; with EKVX NSCLC, over 100 µM; in the test on IGROV1 ovarian, 1.78 µM; with UACC-62 melanoma it was over 100 µM. Also, the GI50 in the test on MOLT-4 leukemia is 19.6 µM; in the test with HOP-62 NSCLC it was over 100 µM; in the test on OVCAR-3 ovarian, 7.82 µM; in the test with RXF 393 renal, over 100 µM. Besides, the TGI in the test on OVCAR-5 ovarian, in the test on SF-295 CNS, in the test with UACC-257 melanoma, with EKVX NSCLC, in the test with IGROV1 ovarian and in the test with UACC-62 melanoma was over 100 µM each time. In addition, the TGI with MOLT-4 leukemia, in the test on HOP-62 NSCLC, in the test on OVCAR-3 ovarian and in the test on RXF 393 renal was over 100 µM each time.
As for `CSc1ccc(C(=O)C(=O)c2ccc(SC)s2)s1`, the TGI in the test with OVCAR-5 ovarian, with SF-295 CNS, with UACC-257 melanoma, in the test on EKVX NSCLC, in the test with IGROV1 ovarian and in the test with UACC-62 melanoma was over 10 µM in each case. The TGI with MOLT-4 leukemia is 7.78 µM; in the test on HOP-62 NSCLC, over 10 µM; in the test on OVCAR-3 ovarian, over 10 µM; in the test on RXF 393 renal it was over 10 µM.
Take `C[C@]12CC[C@H](OC3CCCCO3)CC1=CC[C@@H]1C2CC[C@]2(C)/C(=N/O)CCC12` (stereo not given in full): the TGI is 75.6 µM in the test on OVCAR-5 ovarian; 34.9 µM in the test with SF-295 CNS; 79.8 µM in the test on UACC-257 melanoma; 82.9 µM with EKVX NSCLC; over 100 µM with IGROV1 ovarian; over 100 µM in the test on UACC-62 melanoma. Besides, the TGI in the test with MOLT-4 leukemia is 48.9 µM; in the test on HOP-62 NSCLC, over 100 µM; in the test on OVCAR-3 ovarian it was 31.1 µM; in the test on RXF 393 renal, 44.8 µM.
`CCOP(=O)(Nc1ccc2oc(=O)c3ccccc3c2c1)OCC`: the TGI in the test on OVCAR-5 ovarian, with SF-295 CNS, in the test on UACC-257 melanoma, in the test with EKVX NSCLC, with IGROV1 ovarian and with UACC-62 melanoma was over 100 µM in each case. Also, the TGI in the test with MOLT-4 leukemia, in the test on HOP-62 NSCLC, with OVCAR-3 ovarian and with RXF 393 renal was over 100 µM each time.
